Laboratory results as given in ChEMBL document CHEMBL1138170, “Novel lactam NK1 antagonists with anti-emetic activity” (Bioorg Med Chem Lett, 2006).

Key:
Mustela putorius furo = test: Inhibition of cis-platin induced emesis in ferrets at 1 mg/kg, iv; type: functional
Gerbil, jird [1] = test: Inhibition of GR-73632-induced foot-tapping in gerbils after 24 h at 3 mg/kg, iv; type: functional; conditions: Meriones
Substance-P receptor = Substance-P receptor (Homo sapiens, UniProt P25103); test: Displacement of [125I]-labeled substance P from the cloned human NK1 receptor expressed in CHO cells; type: cell-based
Sequence of Substance-P receptor (P25103 whole entry): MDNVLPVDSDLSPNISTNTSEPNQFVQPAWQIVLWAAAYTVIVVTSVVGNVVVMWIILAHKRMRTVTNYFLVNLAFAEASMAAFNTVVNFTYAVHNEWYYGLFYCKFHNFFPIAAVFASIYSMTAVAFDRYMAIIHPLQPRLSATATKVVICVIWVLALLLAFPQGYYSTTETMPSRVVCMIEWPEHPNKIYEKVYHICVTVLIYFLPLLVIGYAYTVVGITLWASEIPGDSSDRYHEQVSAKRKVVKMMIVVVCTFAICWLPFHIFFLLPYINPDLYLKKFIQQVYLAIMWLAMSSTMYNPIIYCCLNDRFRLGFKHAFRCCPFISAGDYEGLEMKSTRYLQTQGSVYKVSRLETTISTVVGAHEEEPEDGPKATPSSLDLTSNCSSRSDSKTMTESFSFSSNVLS

[2] = biological target: Voltage-gated inwardly rectifying potassium channel KCNH2 (Homo sapiens, UniProt Q12809); test: Displacement of labelled MK-499 from cloned channel hERG expressed in HEK cells; type: cell-based, HEK293
Sequence of Voltage-gated inwardly rectifying potassium channel KCNH2 (Q12809 whole entry): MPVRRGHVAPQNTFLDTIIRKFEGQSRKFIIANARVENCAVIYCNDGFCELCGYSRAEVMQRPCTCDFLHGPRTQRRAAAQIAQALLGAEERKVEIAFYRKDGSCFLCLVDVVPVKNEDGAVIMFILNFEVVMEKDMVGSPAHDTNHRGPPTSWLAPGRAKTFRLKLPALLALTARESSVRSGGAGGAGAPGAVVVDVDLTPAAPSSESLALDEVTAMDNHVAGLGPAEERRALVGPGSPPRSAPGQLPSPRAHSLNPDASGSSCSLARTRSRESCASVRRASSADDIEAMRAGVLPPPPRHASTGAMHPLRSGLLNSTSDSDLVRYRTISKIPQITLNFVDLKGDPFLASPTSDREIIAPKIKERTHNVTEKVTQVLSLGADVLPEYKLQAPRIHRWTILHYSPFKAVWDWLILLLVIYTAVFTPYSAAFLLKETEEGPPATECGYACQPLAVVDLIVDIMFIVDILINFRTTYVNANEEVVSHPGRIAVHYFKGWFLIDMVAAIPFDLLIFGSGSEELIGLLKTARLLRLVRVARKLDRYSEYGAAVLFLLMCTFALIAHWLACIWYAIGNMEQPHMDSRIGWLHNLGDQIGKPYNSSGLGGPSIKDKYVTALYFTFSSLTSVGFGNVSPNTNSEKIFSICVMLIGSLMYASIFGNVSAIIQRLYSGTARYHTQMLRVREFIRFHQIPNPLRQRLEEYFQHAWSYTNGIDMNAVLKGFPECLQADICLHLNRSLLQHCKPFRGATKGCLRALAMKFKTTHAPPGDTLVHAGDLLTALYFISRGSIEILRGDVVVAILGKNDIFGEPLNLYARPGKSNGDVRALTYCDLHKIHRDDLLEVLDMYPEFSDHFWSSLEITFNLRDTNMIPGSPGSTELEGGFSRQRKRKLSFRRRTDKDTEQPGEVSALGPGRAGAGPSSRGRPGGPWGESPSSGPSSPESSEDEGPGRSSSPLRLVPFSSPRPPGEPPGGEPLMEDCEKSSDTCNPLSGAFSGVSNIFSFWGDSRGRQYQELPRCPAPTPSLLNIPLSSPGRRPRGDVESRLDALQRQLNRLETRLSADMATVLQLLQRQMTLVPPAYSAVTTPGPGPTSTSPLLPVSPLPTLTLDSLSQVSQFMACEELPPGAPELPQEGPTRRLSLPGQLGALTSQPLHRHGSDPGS

Gerbil, jird [3] = test: Inhibition of GR-73632-induced foot-tapping in iv dosed gerbils after 0 h; type: functional; conditions: Meriones, read-out: ID50 (the source's name)
Gerbil, jird [4] = test: Inhibition of GR-73632-induced foot-tapping in iv dosed gerbils after 24 h; conditions: Meriones, read-out: ID50 (the source's name)
Gerbil, jird [5] = test: Inhibition of GR-73632-induced foot-tapping in iv dosed gerbils after 24 h; type: functional; conditions: Meriones, read-out: ID50 (the source's name)
Gerbil, jird [6] = test: Inhibition of GR-73632-induced foot-tapping in po dosed gerbils after 24 h; type: functional; conditions: Meriones, read-out: ID50 (the source's name)
Gerbil, jird [7] = test: Inhibition of GR-73632-induced foot-tapping in iv dosed gerbils after 2 h; type: functional; conditions: Meriones, read-out: ID50 (the source's name)

Row | Structure (SMILES) | inhibition in vivo at 1 mg/kg (Mustela putorius furo) [%] | inhibition in vivo at 3 mg/kg (Gerbil, jird [1]) [%] | IC50 (Substance-P receptor) [nM] | Ki [2] [nM] | ED50 (Gerbil, jird [3]) [mg/kg] | ED50 (Gerbil, jird [4]) [mg/kg] | ED50 (Gerbil, jird [5]) [mg/kg] | ED50 (Gerbil, jird [6]) [mg/kg] | ED50 (Gerbil, jird [7]) [mg/kg]
1 | O=C1C(c2cc(C(F)(F)F)cc(C(F)(F)F)c2)CCN1[C@]1(c2ccccc2)CC[C@@H](N2CCC3(CCOC3)CC2)CC1 (some centres undefined) | 50 | 62 | 0.5 | 327 | 0.35 |  |  |  | 
2 | O=C1N([C@]2(c3ccccc3)CC[C@@H](N3CCC4(CCOC4)CC3)CC2)CCC1(O)c1cc(C(F)(F)F)cc(C(F)(F)F)c1 (some centres undefined) |  | 5 | 0.66 | 862 |  |  |  |  | 
3 | CN(C)[C@H]1CC[C@](c2ccccc2)(N2CCC(c3cc(C(F)(F)F)cc(C(F)(F)F)c3)C2=O)CC1 (some centres undefined) |  |  | 6.2 | 984 |  |  |  |  | 
4 | O=C1CN([C@H]2CC[C@](c3ccccc3)(N3CCC(c4cc(C(F)(F)F)cc(C(F)(F)F)c4)C3=O)CC2)CCN1c1ccccc1 (some centres undefined) |  |  | 1.1 | 2000 | 0.09 | 2.1 |  |  | 
5 | CC1(c2cc(C(F)(F)F)cc(C(F)(F)F)c2)CCN([C@]2(c3ccccc3)CC[C@@H](N3CCC4(CCOC4)CC3)CC2)C1=O (some centres undefined) |  |  | 0.33 | 364 |  |  | 0.24 |  | 
6 | CC(C(=O)N[C@]1(c2ccccc2)CC[C@@H](N2CCN(c3ccccc3)C(=O)C2)CC1)c1cc(C(F)(F)F)cc(C(F)(F)F)c1 (some centres undefined) |  |  | 0.62 | 3710 | 0.13 |  | 1.2 |  | 
7 | O=C1CN([C@H]2CC[C@](c3ccccc3)(N3CCCC(c4cc(C(F)(F)F)cc(C(F)(F)F)c4)C3=O)CC2)CCN1c1ccccc1 (some centres undefined) |  |  | 1.5 | 6530 |  |  |  |  | 
8 | O=C1C(c2cc(C(F)(F)F)cc(C(F)(F)F)c2)CCCN1[C@]1(c2ccccc2)CC[C@@H](N2CCC3(CCOC3)CC2)CC1 (some centres undefined) |  | 34 | 0.8 | 798 |  |  |  |  | 
9 | CC(C(=O)N[C@]1(c2ccccc2)CC[C@@H](N2CCC3(CCOC3)CC2)CC1)c1cc(C(F)(F)F)cc(C(F)(F)F)c1 (some centres undefined) |  |  | 0.34 |  | 1.44 |  | 1.62 | 2.2 | 1.1
10 | CC1(c2cc(C(F)(F)F)cc(C(F)(F)F)c2)CCN([C@]2(c3ccccc3)CC[C@@H](N3CCN(c4ccccc4Cl)C(=O)C3)CC2)C1=O (some centres undefined) |  | 57 | 0.48 |  |  |  |  |  | 
11 | COC1(c2cc(C(F)(F)F)cc(C(F)(F)F)c2)CCN([C@]2(c3ccccc3)CC[C@@H](N3CCC4(CCOC4)CC3)CC2)C1=O (some centres undefined) |  | 29 | 0.48 |  |  |  |  |  | 
12 | CC1(c2cc(C(F)(F)F)cc(C(F)(F)F)c2)CCN([C@]2(c3ccccc3)CC[C@@H](N3CCN(c4ccccc4)C(=O)C3)CC2)C1=O (some centres undefined) | 90 |  | 0.48 |  | 0.22 |  | 0.6 |  | 
